One assay relates to Sagittaria pygmaea Miq. In words: Test Example 1: effect of the herbicide composition against paddy field weeds (pot test, green house). In kind it is in vivo. Conditions: Sagittaria pygmaea, 504 h, read-out: Herbicidal effect (%) SAGPY. The source says:
(§1) • Component (a) (a-1): compound No. 1 (ref: the aforementioned Table A) • (a-2): compound No. 3 (same as above) • (a-3): compound No. 11 (same as above) • Component (b) the aforementioned (b-1)-(b-15) • Component (c) the aforementioned (c-1)-(c-3) <Preparation of Test Agents> • Carrier: Acetone 5 parts by weight • Surfactant: Benzyloxy polyglycol ether 1 part by weight The above-mentioned carrier and surfactant and 1 part by weight of active compounds (component (a) and component (b) or component (c)) are mixed and the obtained formulations are diluted with water to prepare the test agents of the prescribed chemicals amount (preparations).
(§2) In a green house, seeds or tubers of Monochoria vaginalis Presl, annual broad-leaves (Lindernia procumbens Philcox, Rotala indica Koehne, Elatine triandra Schk, Ammannia multiflora Roxb., etc.), Cyperus serotinus Rottboel, and Sagittaria pygmaea Miq were inoculated to paddy field soil filled in a 500 cm^2 pot and brought to a submerged condition of about 2-3 cm. At 1.5-2 leafstage of each weed prescribed diluted solution of preparation of each active compound and each herbicide in the following table was applied on water surface each singly or simultaneously. After the treatment, the submerged condition of 3 cm was maintained and the herbicidal effect was studied 3 weeks after the treatment. The herbicidal effect was evaluated as 100% in case of complete death and 0% in case of no effect.
(§3) In the tables, MOOVP represents Monochoria vaginalis Presl, BBBBB represents annual broad-leaves, CYPSE represents Cyperus serotinus Rottboel and SAGPY represents Sagittaria pygmaea Miq.

In assay [1] the test system is Monochoria vaginalis Presl. The description is as above. In kind it is in vivo. As to conditions: Pontederia vaginalis, 504 h, read-out: Herbicidal effect (%) MOOVP.
From the text: as §1, §2, §3

Assay [2] has as its system Cyperus serotinus Rottboel. The assay is described as above. Type of assay: in vivo. As to conditions: Cyperus serotinus, 504 h, read-out: Herbicidal effect (%) CYPSE.
From the text: as §1, §2, §3

Experiment in assay [3]: as above
Type of assay: in vivo, annual broad-leaves. Conditions: 504 h, read-out: Herbicidal effect (%) BBBBB.
From the text: as §2, with “At 1.5-2 leafstage of each weed prescribed diluted solution of preparation of each active compound and each herbicide in the following table was applied on water surface each singly or simultaneously.” left out
as §3

Setting [4] is: 125 g/ha single, 3 weeks after treatment.
Where [5] appears, read: 250 g/ha single, 3 weeks after treatment.
Where [6] appears, read: 50 g/ha single, 3 weeks after treatment.
The mark [7] stands for this setting: 100 g/ha single, 3 weeks after treatment.
Where [8] appears, read: 2.5 g/ha single, 3 weeks after treatment.
The mark [9] stands for this setting: 5 g/ha single, 3 weeks after treatment.
Setting [10] is: 75 g/ha single, 3 weeks after treatment.
Setting [11] is: 150 g/ha single, 3 weeks after treatment.
Where [12] appears, read: 300 g/ha single, 3 weeks after treatment.
Where [13] appears, read: 600 g/ha single, 3 weeks after treatment.
The mark [14] stands for this setting: 20 g/ha single, 3 weeks after treatment.
The mark [15] stands for this setting: 40 g/ha single, 3 weeks after treatment.

Our source for the pest or weed control values is patent US7855165B2, “Herbicide composition for paddy field” (Bayer Cropscience AG, priority 2007, dated 2010).

Read-outs that look alike come from different tables or passages of the source.

Turning to `COP(=S)(OC)SCC(=O)N(c1ccc(Cl)cc1)C(C)(C)C` [(b-1), anilofos], the pest or weed control at 100 g/ha in the assay on Sagittaria pygmaea Miq came to 10%; in assay [1], 10%; in assay [2], 0%; in assay [3], 0%. Besides, the pest or weed control at 200 g/ha came out at 10% in the assay on Sagittaria pygmaea Miq, 10% in assay [1], 0% in assay [2] and 0% in assay [3].

As for `CCCOCCN(C(=O)CCl)c1c(CC)cccc1CC` [(b-2), pretilachlor], the pest or weed control at 125 g/ha in the assay on Sagittaria pygmaea Miq (setting [4]) is 0%; in assay [1] (setting [4]), 10%; in assay [2] (setting [4]), 0%; in assay [3] (setting [4]), 10%. The pest or weed control at 250 g/ha in the assay on Sagittaria pygmaea Miq (setting [5]) is 10%; in assay [1] (setting [5]) it was 20%; in assay [2] (setting [5]), 0%; in assay [3] (setting [5]), 10%.

Regarding `CCN(CC)C(=O)n1cnc(S(=O)(=O)c2c(C)cc(C)cc2C)n1` [(b-3), cafenstrole], the pest or weed control at 75 g/ha is 10% with Sagittaria pygmaea Miq, 50% in assay [1], 0% in assay [2] and 40% in assay [3]. The pest or weed control at 150 g/ha in the assay with Sagittaria pygmaea Miq is 10%; in assay [1], 60%; in assay [2] it was 70%; in assay [3] it was 50%.

For the compound `CCCCOC(=O)[C@@H](C)Oc1ccc(Oc2ccc(C#N)cc2F)cc1` [(b-4), cyhalofop-butyl], the pest or weed control at 90 g/ha with Sagittaria pygmaea Miq came to 10%; in assay [1], 0%; in assay [2], 0%; in assay [3] it was 0%. The pest or weed control at 180 g/ha with Sagittaria pygmaea Miq was determined as 20%; in assay [1] it was 10%; in assay [2], 0%; in assay [3], 0%.

As to `COc1cnc(OC)n2nc(NS(=O)(=O)c3c(OCC(F)F)cccc3C(F)(F)F)nc12` [(b-5), penoxsulam], the pest or weed control at 50 g/ha in the assay on Sagittaria pygmaea Miq (setting [6]) stood at 65%; in assay [1] (setting [6]), 75%; in assay [2] (setting [6]), 70%; in assay [3] (setting [6]) it was 50%. Further, the pest or weed control at 100 g/ha was 85% with Sagittaria pygmaea Miq (setting [7]), 90% in assay [1] (setting [7]), 70% in assay [2] (setting [7]) and 90% in assay [3] (setting [7]).

With `COc1cc(OC)nc(Oc2cccc(Oc3nc(OC)cc(OC)n3)c2C(=O)O)n1` [(b-7), bispyribac-sodium], the pest or weed control at 2.5 g/ha with Sagittaria pygmaea Miq (setting [8]) is 0%; in assay [1] (setting [8]) it was 0%; in assay [2] (setting [8]), 20%; in assay [3] (setting [8]), 10%. In addition, the pest or weed control at 5 g/ha turned out to be 30% in the assay with Sagittaria pygmaea Miq (setting [9]), 10% in assay [1] (setting [9]), 60% in assay [2] (setting [9]) and 10% in assay [3] (setting [9]).

In the case of `CCN(C(=O)n1nnn(-c2ccccc2Cl)c1=O)C1CCCCC1` [(b-8), fentrazamide], the pest or weed control at 75 g/ha was found to be 30% with Sagittaria pygmaea Miq (setting [10]), 40% in assay [1] (setting [10]), 30% in assay [2] (setting [10]) and 40% in assay [3] (setting [10]). Moreover, the pest or weed control at 150 g/ha with Sagittaria pygmaea Miq (setting [11]) amounted to 30%; in assay [1] (setting [11]), 60%; in assay [2] (setting [11]), 30%; in assay [3] (setting [11]), 70%.

Regarding `CN(C(=O)COc1nc2ccccc2s1)c1ccccc1` [(b-9), mefenacet], the pest or weed control at 300 g/ha in the assay with Sagittaria pygmaea Miq (setting [12]) came to 10%; in assay [1] (setting [12]), 65%; in assay [2] (setting [12]), 30%; in assay [3] (setting [12]), 30%. Moreover, the pest or weed control at 600 g/ha with Sagittaria pygmaea Miq (setting [13]) came to 10%; in assay [1] (setting [13]), 80%; in assay [2] (setting [13]) it was 30%; in assay [3] (setting [13]), 40%.

On to `CC1=C(c2ccccc2)C(=O)N(C(C)(C)c2cc(Cl)cc(Cl)c2)CO1` [(b-10), oxaziclomefone], for which the pest or weed control at 20 g/ha in the assay with Sagittaria pygmaea Miq (setting [14]) came out at 0%; in assay [1] (setting [14]) it was 10%; in assay [2] (setting [14]), 0%; in assay [3] it was 40%. For the same compound, the pest or weed control at 40 g/ha in the assay with Sagittaria pygmaea Miq (setting [15]) worked out at 10%; in assay [1] (setting [15]), 20%; in assay [2] (setting [15]), 0%; in assay [3] it was 40%.

With `CCS(=O)(=O)Oc1ccc2c(c1)C(C)(C)CO2` [(b-11), benfuresate], the pest or weed control at 125 g/ha in the assay with Sagittaria pygmaea Miq is 10%; in assay [1], 0%; in assay [2], 20%; in assay [3], 0%. Moreover, the pest or weed control at 250 g/ha in the assay with Sagittaria pygmaea Miq was determined as 20%; in assay [1], 0%; in assay [2], 70%; in assay [3] it was 0%.
